The target of the assay is T1, ABCG2 (Homo sapiens, UniProt Q9UNQ0).
T1 sequence (Q9UNQ0 1-655): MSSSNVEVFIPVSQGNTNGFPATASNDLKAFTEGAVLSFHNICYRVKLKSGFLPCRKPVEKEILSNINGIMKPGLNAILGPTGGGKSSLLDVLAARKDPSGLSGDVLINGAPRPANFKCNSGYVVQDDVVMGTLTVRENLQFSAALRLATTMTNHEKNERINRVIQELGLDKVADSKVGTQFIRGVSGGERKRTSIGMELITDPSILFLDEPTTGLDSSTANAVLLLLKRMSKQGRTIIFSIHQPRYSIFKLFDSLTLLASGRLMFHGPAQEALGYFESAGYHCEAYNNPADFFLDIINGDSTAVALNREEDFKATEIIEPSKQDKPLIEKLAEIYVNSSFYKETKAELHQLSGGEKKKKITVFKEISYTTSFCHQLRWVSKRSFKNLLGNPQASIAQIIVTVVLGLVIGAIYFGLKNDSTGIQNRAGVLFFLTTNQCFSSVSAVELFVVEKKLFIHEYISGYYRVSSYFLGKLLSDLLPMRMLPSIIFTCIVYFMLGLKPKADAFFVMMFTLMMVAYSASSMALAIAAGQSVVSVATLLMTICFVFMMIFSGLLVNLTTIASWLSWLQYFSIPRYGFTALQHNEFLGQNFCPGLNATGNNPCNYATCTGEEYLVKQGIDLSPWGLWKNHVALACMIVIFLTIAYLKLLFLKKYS
Kind of assay: inhibition of [3H]methotrexate transport in Sf9 membrane vesicles. It counts as biochemical.

Molecules are shown by their SMILES.

Broadly, the IC50 is the concentration at which inhibition is half-maximal. Read a high IC50 as weaker potency.

`Nc1nc(Cl)nc2c1ncn2[C@@H]1O[C@H](CO)[C@@H](O)[C@@H]1F` [clofarabine]: the half-maximal inhibitory concentration (IC50) was around 14 µM.

The values are drawn from publication PMC3531552 (Cancer research, 2011).
